Reference: patent US12215215B2, “Stabilizer compositions and methods for using same for protecting polymeric organic materials from UV light and thermal degradation” (Cytec Industries Inc., priority 2014, dated 2025)

Assay: Solubility of triazine UV absorbers in cyclohexane at room temperature
Format: physicochemical
Conditions: room temperature (20° C.)
Source text: UV stabilizers and co-additives. […] Solubility measurements of various orthohydroxyphenyl triazines in cyclohexane (substitute for polypropylene) conducted at room temperature indicate that such triazines having a solubility greater than 0.04 wt. % can be used in certain embodiments as the UV absorber of the stabilizer compositions described herein.

| Compound | Solubility of triazines in Cyclohexane at room temperature |
| --- | --- |
| CCCCCCCCOc1ccc(-c2nc(-c3ccc(OCCCCCCCC)cc3O)nc(-c3ccc(OCCCCCCCC)cc3O)n2)c(O)c1 [Formulation P-800, 2,4,6-tris(2-hydroxy-4-octyloxy-phenyl)-1,3,5-triazine] | >0.04% weight % |
| CCCCCCCCOc1ccc(-c2nc(-c3ccc(C)cc3C)nc(-c3ccc(C)cc3C)n2)c(O)c1 [UV-1164, 2-[4,6-bis(2,4-dimethylphenyl)-1,3,5-triazin-2-yl]-5-(octyloxy) phenol] | 1.4 ± 0.2 weight % |
